Measured values from PubChem BioAssay AID179 (DTP/NCI, 2004).
Several values for one entry are separate records, joined by “and”; a condition that tells them apart may be missing. Equal values may be shown once. Activity calls are given as the source filed them.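 The calls were made as follows: active = compounds giving half or more protection of infected cells from virus-caused growth loss, again on retest; inactive = the rest.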

Test system: CEM cells HIV-1 protection, formazan growth assay
Experiment: NCI AIDS Antiviral Assay
Conditions: for IC50: measured here: growth of uninfected CEM cells
How it was run: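 Human CEM cells, uninfected and HIV-1-infected, exposed to five drug concentrations; growth measured by soluble formazan assay and scored as percent protection from infection, with protecting compounds retested.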

Compound	EC50 [µM]	IC50	outcome
CCCCOB(OCCCC)OCCCC	> 200	> 200 µM	–
COC[C@H]1c2cc(O)c(OCc3ccccc3)cc2O[C@@H]1c1ccc(OC)cc1	> 200	19.5 µM	–
CC1(C)CC(=O)C2=C(C1)NC(SSC1=C(C#N)C(c3ccccc3)C3=C(CC(C)(C)CC3=O)N1)=C(C#N)C2c1ccccc1 (stereo not given)	> 112	15.5 µM	–
Nc1nc(=S)c2ncn(C3CC(O)C(CO)O3)c2[nH]1 (stereo not given)	> 891	0.457 µM and 2.09 µM	–
O=C1CN=C(c2ccccn2)c2cc(Cl)ccc2N1CCO	> 794	468 µM	–
COc1cc2c3c(c1OC)-c1c(ccc4c1OCO4)CC3(C#N)N(C(=O)c1ccccc1)CC2 (stereo not given)	–	–	inactive
CCOC(=O)c1cc(OC(C)=O)c2ccccc2c1	> 100	95.5 µM	–
COC12C=CC(CC1)C(C)(C)C2=O (stereo not given)	> 200	> 200 µM	–
CNP1(NC)=NP(NC)(NC)=NP(NC)(NC)=NP(NC)(NC)=N1	> 3.47	> 3.47 µM	–
COc1ccc2oc3c4c2c1CCC4CCC3=O (stereo not given)	–	–	inactive
COC(=O)C1C(O)CC(c2ccccn2)N(Cc2ccccc2)C1c1ccccn1 (stereo not given)	> 89.1	83.2 µM	–
CCCCCC/C=C\CCCCCCCCCc1cc(O)cc(OC)c1O	> 13.8	5.01 µM	–
CC(=O)c1ccc(NC(=O)/C(=N\NC(N)=O)C(C#N)CC(C)(C)C=O)cc1 (stereo not given)	> 490	> 490 µM	–
COc1ccc(-c2nc(-c3cc4ccccc4oc3=O)cs2)cc1	> 100	> 100 µM	–
CC[C@@H]1C2CC3C4N(C)c5ccccc5[C@]45C[C@@H](C2C5O)N3C1O (stereo not given in full)	–	–	inactive
O=c1nc2sc3ccccc3c(=O)n2[nH]1	> 204	77.6 µM	–
COc1ccc(C2Oc3cc(OC)cc(O)c3C(=O)C2C2C(=O)c3c(O)cc(OC)cc3OC2c2ccc(O)cc2)cc1 (stereo not given)	> 200	37.2 µM	–
CC(C)CN1CC(=O)N2CCCC(C)N2C(=O)C1 (stereo not given)	> 200	> 200 µM	–
CCCCc1ccc(Nc2nc(OC)c3ncn(C4CC(O)C(CO)O4)c3n2)cc1 (stereo not given)	> 200	15.1 µM	–
Cn1c(=O)c(NC(=O)C(Cl)(Cl)Cl)nc2ccccc21	> 93.3	> 93.3 µM	–
COC(=O)NN=C(c1ccc(Cl)cc1)c1ccc(Cl)cc1	35.5	174 µM	–

Compound	EC50 [µM]	IC50	outcome
CCCCCC1CC=CC(NC(=O)OCc2ccccc2)C1/C=C/C(=O)CCCCCOC(=O)c1ccc(Br)cc1 (stereo not given)	–	–	inactive
CCCOCC(=O)OC	> 1910	> 1910 µM	–
CCOc1ccccc1/C=C1\NC(=O)NC1=O	> 200	> 200 µM	–
S=C(S)N1CCNCC1	–	–	inactive
S=C(NNC1=NCCCN1)Nc1ccccc1	> 200	12.6 µM	–
CC(=N\N=C\c1ccccn1)/C(C)=N/N=C/c1ccccn1	> 100	14.1 µM	–
N#C/C(=C\NC(=S)Nc1ccccc1Cl)C(=O)c1ccc2ccccc2c1	> 200	141 µM	–
Cc1cc(-c2c(Br)cc(C(=O)O)n2C)on1	> 200	> 200 µM	–
NP(N)(=O)Nc1ccccc1	10.5	> 200 µM	–
N#Cc1ccc([N+](=O)[O-])cc1NC(N)=S	> 224	> 224 µM	–
NC(c1ccccc1)(C(F)(F)F)P1(=O)OC(=O)c2ccccc2O1 (stereo not given)	> 200	> 200 µM	–
CCC1C(C)C=CN1c1nc(N)nc(NS(=O)(=O)c2cc(C)c(Cl)cc2S)n1 (stereo not given)	129	> 200 µM	–
COc1cccc(-c2nc(N)c(C#N)c3c2CCS(=O)(=O)c2ccc(C)cc2-3)c1	> 200	4.07 µM	–
CN1C(=O)Cc2ccccc21	> 200	151 µM	–
c1ccc(-c2csc3[nH]c4ccccc4[n+]23)cc1	–	–	inactive
CC(C)CN1CN(c2ccccc2)C2(CCN(CC(C)(c3ccc(F)cc3)C3OCCO3)CC2)C1=O (stereo not given)	> 100	12.6 µM	–
COC1/C=C/OC2(C)Oc3c(C)c(O)c4c(O)c(c(C=NN5C(C)CC(Cc6ccccc6)CC5C)c(O)c4c3C2=O)NC(=O)/C(C)=C/C=C/C(C)C(O)C(C)C(O)C(C)C(OC(C)=O)C1C (stereo not given)	> 200	8.71 µM	–
COc1cc(C2c3cc4c(cc3OC(Nc3ccccc3)C2C)OCO4)cc(OC)c1O (stereo not given)	–	–	inactive
O=C(N=Nc1c(O)[nH]c2ccccc12)C(O)(c1ccccc1)c1ccccc1	> 200	39.8 µM	–
CN(C)CC/C(=N\Nc1c(F)c(F)c(F)c(F)c1F)c1ccccc1	–	–	inactive
CCOC(=O)N1CCc2cc(OC)c(OC)c3c2c1cc1cc(OC)c(OC)cc13	–	–	inactive

Compound	EC50 [µM]	IC50	outcome
CC(C)[C@@H](C)/C=C/[C@@H](C)C1CC2C3=CC=C4C[C@@H](OC5OCC(O)C6OC(=O)C(=O)OC56)CC[C@]4(C)C3CC[C@]2(C)C1 (stereo not given in full)	> 200	11 µM	–
Cc1cc(-c2ccc(N=Nc3c(N)c(C)cc(S(=O)(=O)O)c3N)c(C)c2)ccc1N=Nc1ccc(O)c(C(=O)O)c1	126	> 200 µM	–
O=C1[C@@H]2C3SC(c4cc5ccccc5cc43)[C@@H]2C(=O)N1c1ccccc1	> 72.4	> 72.4 µM	–
C[C@@H]1C[C@H]2[C@@H]3C[C@H](F)C4=CC(=O)C=C[C@]4(C)[C@@]3(F)[C@@H](O)C[C@]2(C)C1C(=O)COC(=O)c1cccc2c(=O)c3ccccc3[nH]c12 (stereo not given in full)	> 100	2 µM	–
O=C(O)C(O)C(O)C(=O)O (stereo not given)	> 200	> 200 µM	–
Cc1c(NC(=S)NN)c(=O)n(-c2ccccc2)n1C	> 200	> 200 µM	–
Cc1nc2ccc(Cl)cc2c2c1CCS2	> 200	117 µM	–
COc1ccc(CC2Cc3ccccc3CC(=O)N2)cc1OC (stereo not given)	> 200	17.8 µM	–
O=C(CCCC(=O)N/N=C/c1ccc(O)c(O)c1)N/N=C\c1ccc(O)c(O)c1	> 200	29.5 µM	–
CC(C)(C)C1=C(Br)C(C(C)(C)C)OP1(=O)O (stereo not given)	> 100	> 100 µM	–
CCN(CC)C(=S)SNCCc1ccc(S(N)(=O)=O)cc1	> 200	10.5 µM	–
C=C(CCC(=O)N(CCc1c[nH]c2ccccc12)C(=O)c1ccccc1CSCC)C(=O)OC	> 200	15.1 µM	–
CCOC(=O)/C(=C\c1ccco1)C(C)=O	> 240	> 240 µM	–
COc1cc(/C=C(\C)[N+](=O)[O-])cc(OC)c1	> 200	3.39 µM	–
Cc1nc(C)c(N2CCN(CN)CC2)c(=O)[nH]1	> 200	> 200 µM	–
O=C1c2ccsc2C(=O)c2sccc21	> 2	0.309 µM	–
O=c1c(Cc2ccccc2)c(O)n(Cc2nc3ccccc3[nH]2)c(=S)n1-c1ccccc1	> 200	> 200 µM	–
CCOC(=O)c1cc(-c2ccc3ccccc3n2)c(O)c2cc3ccccc3nc12	> 200	> 200 µM	–
Nc1nc2ncc(CNc3ccc(C(=O)NC(CCC(=O)NC(CCC(=O)NC(CCC(=O)NC(CCC(=O)NC(CCC(=O)O)C(=O)O)C(=O)O)C(=O)O)C(=O)O)C(=O)O)cc3)nc2c(=O)[nH]1 (stereo not given)	> 100	> 100 µM	–
Cc1cc2nncn2c2nnnn12	> 200	> 200 µM	–
O=[N+]([O-])c1ccc(Cl)cc1N/N=C/c1ccnc2ccccc12	–	–	inactive

Compound	EC50 [µM]	IC50	outcome
CC(C)c1nc2c(Cl)c3ncccc3cc2[nH]c1=O	> 100	39.8 µM	–
CCc1oc2ccccc2c1C(=O)c1ccc(O)cc1	> 324	53.7 µM	–
CCOC(=O)c1cc(Br)c(-c2cc(C)co2)[nH]1	> 200	> 200 µM	–
O=S(=O)(O)c1ccc(OCCCCCCCCOc2ccc(S(=O)(=O)O)cc2)cc1	> 14.5	> 14.5 µM	–
COC1(OC)C2(Cl)CC(OC(C)=O)C1(Cl)C(Cl)=C2Cl (stereo not given)	> 200	> 100 µM	–
CCCCCCc1cc(C(=O)Nc2ccc(Cl)cc2)nc(=S)[nH]1	> 708	479 µM	–
Cc1cn(C2CC(O)C(COC(=O)CCCCCCCCCCCBr)O2)c(=O)[nH]c1=O (stereo not given)	29.5	51.3 µM	–
CC(=O)NNC(=S)/N=C/C(C(=O)Nc1ccc(Cl)cc1)=C(\C)O	–	–	inactive
COc1ccc2[nH]c3c(c2c1)CC(=S)N1CCCC(CC3=O)C1 (stereo not given)	> 200	61.7 µM	–
COc1ccc(-n2nc(C)cc(Cl)c2=O)cc1	> 145	> 145 µM	–
CC(=O)C1C(=O)C(=O)N(c2ccc(Cl)c(Cl)c2)C1=O (stereo not given)	> 200	129 µM	–
Cc1c(-c2ccccc2)sc(/N=C/c2cc(Br)cc(Br)c2O)c1C#N	> 20	0.708 µM	–
COC1/C=C/OC2(C)Oc3c(C)c(O)c4c(O)c(c(/C=N/N(C)C5OC(COC(=O)c6ccccc6)C(OC(=O)c6ccccc6)C5OC(=O)c5ccccc5)c(O)c4c3C2=O)NC(=O)C(C)=C/C=C/C(C)C(O)C(C)C(O)C(C)C(OC(C)=O)C1C (stereo not given)	> 200	10 µM	–
C(/Cc1ccc2c(c1)OCO2)=N\NC1=NCCCCN1	> 200	105 µM	–
COc1cc2c(cc1OC)C(Cc1ccc(OC)c(Oc3ccc(C[C@@H]4c5cc(OC)c(OC)cc5CCN4C)cc3)c1)N(C)CC2 (stereo not given in full)	–	–	inactive
OC(C#CCN1CCCC1)(c1ccccc1)c1ccc(Cl)cc1.[C-]#[O+].[C-]#[O+].[C-]#[O+].[C-]#[O+].[C-]#[O+].[C-]#[O+].[Co].[Co] (stereo not given)	> 200	5.62 µM	–
COC(=O)C(=O)C(C(=O)C=C(C)C)C(=O)C(=O)Nc1nc2ccc([N+](=O)[O-])cc2s1 (stereo not given)	> 60.3	> 60.3 µM	–
CC1=CC(=O)C2[C@@H](C1)C1(C)C(=O)C34OC(=O)C[C@@](C)([C@H]1C(=O)[C@@H]2C)[C@]3(C)CC[C@]12C[C@@H](C)C[C@H](CN41)O2 (stereo not given in full)	–	–	inactive
COC(=O)C1=C(C(=O)OC)C23CC1C1C(C(=O)OC)=C(C(=O)OC)C12C1C=CC3C2C(=O)OC(=O)C21 (stereo not given)	> 14.5	> 14.5 µM	–
C=CCOc1ccc(N)c([N+](=O)[O-])c1	> 200	> 200 µM	–
CCCC(=O)Oc1c(Cl)cc(C(=CCC[C@H]2CC[C@@]3(C)[C@@H](CC[C@@H]4[C@@H]3CC[C@]3(C)[C@@H]([C@H](C)CCCC(C)C)CC[C@@H]43)C2)c2cc(Cl)c(OC(=O)CCC)c(C(=O)O)c2)cc1C(=O)O	79.4	> 100 µM	–
